Laboratory results taken from US10800782B2, “Inhibitors of cellular metabolic processes” (Agios Pharmaceuticals, Inc., priority 2016, dated 2020).

molecular target: T1, MAT2A (Homo sapiens, UniProt P31153); test: MAT2A biochemical assay (colorimetric inorganic phosphate detection, PiColorLock); conditions: recombinant His6-tagged MAT2A 1 μg/ml; 60 minutes preincubation at 25° C.; L-Met 80 μM, ATP 100 μM; 60 minutes reaction; read at 623 nm; read-out: MAT2A Inhibition Score
T1 construct: His6; made in house; host or cells: SF9 insect cells
T1 sequence (P31153 whole entry): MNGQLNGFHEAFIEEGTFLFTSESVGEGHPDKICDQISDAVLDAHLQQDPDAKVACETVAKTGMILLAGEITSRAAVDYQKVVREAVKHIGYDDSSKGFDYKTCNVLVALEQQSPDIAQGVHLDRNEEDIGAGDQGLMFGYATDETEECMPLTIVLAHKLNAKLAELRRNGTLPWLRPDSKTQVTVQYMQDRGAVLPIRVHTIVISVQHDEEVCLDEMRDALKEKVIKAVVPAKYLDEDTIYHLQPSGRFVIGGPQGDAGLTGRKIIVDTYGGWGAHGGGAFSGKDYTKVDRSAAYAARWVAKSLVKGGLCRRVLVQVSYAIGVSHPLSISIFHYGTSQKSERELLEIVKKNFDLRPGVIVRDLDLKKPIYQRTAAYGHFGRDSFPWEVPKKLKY
In short: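 His6-tagged human MAT2A (SF9-expressed, 1 μg/ml) converting L-Met and ATP to SAM in Tris pH 8.0, 50 mM KCl, 15 mM MgCl2, 300 uM EDTA, 0.005% BSA; 60 min at room temperature. Released phosphate detected colorimetrically with malachite green phosphomolybdate. Ten-point, three-fold compound dilution series.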

IC50 | SMILES
< 100 nM | NCc1[nH]c2c(-c3ccccc3)c(-c3ccccc3)nn2c(=O)c1-c1ccc2ncccc2c1 [Compound 224, 5-(aminomethyl)-2,3-diphenyl-6-(quinolin-6-yl)pyrazolo[1,5-a]pyrimidin-7(4H)-one]
< 100 nM | COc1ccc(-c2c(Nc3cc(OC)[nH]n3)[nH]c3c(-c4ccccc4)c(-c4ccccc4)nn3c2=O)cc1 [Compound 183, 5-((5-methoxy-1H-pyrazol-3-yl)amino)-6-(4-methoxyphenyl)-2,3-diphenylpyrazolo[1,5-a]pyrimidin-7(4H)-one]
1000 to 10000 nM | O=C1NCCN1Cc1[nH]c2c(-c3ccccc3)c(-c3ccccc3)nn2c(=O)c1-c1ccc2ncccc2c1 [Compound 324, 5-((2-oxoimidazolidin-1-yl)methyl)-2,3-diphenyl-6-(quinolin-6-yl)pyrazolo[1,5-a]pyrimidin-7(4H)-one]
< 100 nM | COc1ccc(-c2c(Nc3ccno3)[nH]c3c(-c4ccccc4)c(-c4ccccc4)nn3c2=O)cc1 [Compound 140, 5-(isoxazol-5-ylamino)-6-(4-methoxyphenyl)-2,3-diphenylpyrazolo[1,5-a]pyrimidin-7(4H)-one]
< 100 nM | COCn1c(-c2ccccc2)c(C2=CCCCC2)c2nc(C)c(-c3ccc(OC)cc3)c(=O)n21 [Compound 291, 3-cyclohexenyl-1-(methoxymethyl)-6-(4-methoxyphenyl)-5-methyl-2-phenylpyrazolo[1,5-a]pyrimidin-7(1H)-one]
< 100 nM | Cc1nc2ccc(-c3c(C)[nH]c4c(-c5ccccc5)c(-c5ccccc5)nn4c3=O)cc2cc1O [Compound 247, 6-(3-hydroxy-2-methylquinolin-6-yl)-5-methyl-2,3-diphenylpyrazolo[1,5-a]pyrimidin-7(4H)-one]
< 100 nM | COc1ccc(-c2c(NC(=O)CN)[nH]c3c(-c4ccccc4)c(-c4ccccc4)nn3c2=O)cc1 [Compound 283, 2-amino-N-(6-(4-methoxyphenyl)-7-oxo-2,3-diphenyl-4,7-dihydropyrazolo[1,5-a]pyrimidin-5-yl)acetamide]
< 100 nM | COc1ccc(-c2c(Nc3ccncc3)[nH]c3c(C4=CCCCC4)c(-c4ccccc4)nn3c2=O)cc1 [Compound 297, 3-(cyclohex-1-en-1-yl)-6-(4-methoxyphenyl)-2-phenyl-5-(pyridin-4-ylamino)pyrazolo[1,5-a]pyrimidin-7(4H)-one]
100 to 1000 nM | Cc1c(-c2ccc3ncccc3c2)c(=O)n2nc(-c3ccccc3)c(-c3ccccc3)c2n1C [Compound 318, 4,5-dimethyl-2,3-diphenyl-6-(quinolin-6-yl)pyrazolo[1,5-a]pyrimidin-7(4H)-one]
< 100 nM | Cc1[nH]c2c(C3=CCC(F)(F)CC3)c(-c3ccccc3)nn2c(=O)c1-c1ccc2ncccc2c1 [Compound 265, 3-(4,4-difluorocyclohex-1-en-1-yl)-5-methyl-2-phenyl-6-(quinolin-6-yl)pyrazolo[1,5-a]pyrimidin-7(4H)-one]
< 100 nM | COc1ccc(-c2c(O)[nH]c3c(-c4ccccc4)c(-c4ccccc4)nn3c2=O)cc1 [Compound 290, 5-hydroxy-6-(4-methoxyphenyl)-2,3-diphenylpyrazolo[1,5-a]pyrimidin-7(4H)-one]
< 100 nM | CCOC(=O)c1ncsc1Nc1[nH]c2c(-c3ccccc3)c(-c3ccccc3)nn2c(=O)c1-c1ccc(OC)cc1 [Compound 150, ethyl 5-((6-(4-methoxyphenyl)-7-oxo-2,3-diphenyl-4,7-dihydropyrazolo[1,5-a]pyrimidin-5-yl)amino)thiazole-4-carboxylate]
< 100 nM | O=c1c(-c2ccc3ncccc3c2)c(CO)[nH]c2c(C3=CCCCC3)c(-c3ccccc3)nn12 [Compound 230, 3-(cyclohex-1-en-1-yl)-5-(hydroxymethyl)-2-phenyl-6-(quinolin-6-yl)pyrazolo[1,5-a]pyrimidin-7(4H)-one]
< 100 nM | O=c1c(-c2ccc3c(c2)NCCO3)c(Nc2ccccn2)[nH]c2c(-c3ccccc3)c(-c3ccccc3)nn12 [Compound 197, 6-(3,4-dihydro-2H-benzo[b][1,4]oxazin-6-yl)-2,3-diphenyl-5-(pyridin-2-ylamino) pyrazolo[1,5-a]pyrimidin-7(4H)-one]
< 100 nM | COc1ccc(-c2c(Nc3cncc(C#N)n3)[nH]c3c(-c4ccccc4)c(-c4ccccc4)nn3c2=O)cc1 [Compound 131, 6-(6-(4-methoxyphenyl)-7-oxo-2,3-diphenyl-4,7-dihydropyrazolo[1,5-a]pyrimidin-5-ylamino)pyrazine-2-carbonitrile]
100 to 1000 nM | Cc1[nH]c2c(-c3ccccc3)c(-c3ccccc3)nn2c(=O)c1C1=CCC(=O)CC1 [Compound 336, 5-methyl-6-(4-oxocyclohex-1-en-1-yl)-2,3-diphenylpyrazolo[1,5-a]pyrimidin-7(4H)-one]
< 100 nM | COc1ccc(-c2c(NCCO)[nH]c3c(-c4ccccc4)c(-c4ccccc4)nn3c2=O)cc1 [Compound 286, 5-((2-hydroxyethyl)amino)-6-(4-methoxyphenyl)-2,3-diphenylpyrazolo[1,5-a]pyrimidin-7(4H)-one]
100 to 1000 nM | O=c1c(-c2ccc3ncccc3c2)c(Cn2cccn2)[nH]c2c(-c3ccccc3)c(-c3ccccc3)nn12 [Compound 320, 5-((1H-pyrazol-1-yl)methyl)-2,3-diphenyl-6-(quinolin-6-yl)pyrazolo[1,5-a]pyrimidin-7(4H)-one]
< 100 nM | COc1cc(-c2c(C)[nH]c3c(-c4ccccc4)c(-c4ccccc4)nn3c2=O)ccc1O [Compound 259, 6-(4-hydroxy-3-methoxyphenyl)-5-methyl-2,3-diphenylpyrazolo[1,5-a]pyrimidin-7(4H)-one]
< 100 nM | Cc1[nH]c2c(C3=CCCCC3)c(-c3ccccc3)nn2c(=O)c1-c1ccc(O)cc1 [Compound 240, 3-(cyclohex-1-en-1-yl)-6-(4-hydroxyphenyl)-5-methyl-2-phenylpyrazolo[1,5-a]pyrimidin-7(4H)-one]
100 to 1000 nM | Cc1[nH]c2c(-c3ccccc3)c(-c3ccccc3)nn2c(=O)c1-c1ccc2ncnc(N)c2c1 [Compound 330, 6-(4-aminoquinazolin-6-yl)-5-methyl-2,3-diphenylpyrazolo[1,5-a]pyrimidin-7(4H)-one]
1000 to 10000 nM | Cc1[nH]c2c(-c3ccccc3)c(-c3ccncc3)nn2c(=O)c1-c1ccc2ncccc2c1 [Compound 348, 5-methyl-3-phenyl-2-(pyridin-4-yl)-6-(quinolin-6-yl)pyrazolo[1,5-a]pyrimidin-7(4H)-one]
< 100 nM | COc1ccc(-c2c(Nc3ccn(COC(=O)[C@@H](N)C(C)C)n3)[nH]c3c(-c4ccccc4)c(-c4ccccc4)nn3c2=O)cc1 [Compound 201, (S)-(3-((6-(4-methoxyphenyl)-7-oxo-2,3-diphenyl-4,7-dihydropyrazolo[1,5-a]pyrimidin-5-yl)amino)-1H-pyrazol-1-yl)methyl 2-amino-3-methylbutanoate]
< 100 nM | CC(=O)Nc1[nH]c2c(-c3ccccc3)c(-c3ccccc3)nn2c(=O)c1-c1ccc2ncccc2c1 [Compound 172, N-(7-oxo-2,3-diphenyl-6-(quinolin-6-yl)-4,7-dihydropyrazolo[1,5-a]pyrimidin-5-yl)acetamide]
100 to 1000 nM | CNC(=O)c1[nH]c2c(-c3ccccc3)c(-c3ccccc3)nn2c(=O)c1-c1ccc2ncccc2c1 [Compound 325]
